Assay results from patent US9951046B2, “TRPA1 modulators” (Algomedix, Inc., priority 2014, dated 2018).

Biological target: T1, human TRPA1 (Homo sapiens, UniProt O75762)
T1 construct: expressed in transfected cells
Experiment: Cell-based functional intracellular calcium ([Ca2+]i) assay, Fluo-4/Fluo-8, FlexStation, challenge with reference TRPA1 agonist (FFA, AITC or 4-HNE)
Settings: not given
Outline: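 Doxycycline-induced (1 μg/ml) HEK293 expressing human TRPA1, with 5 μM ruthenium red during induction, loaded with Fluo-4 or Fluo-8 plus 2 mM probenecid; FlexStation read at 20-25° C, sometimes with 0.1% BSA.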

T1 sequence (O75762 whole entry): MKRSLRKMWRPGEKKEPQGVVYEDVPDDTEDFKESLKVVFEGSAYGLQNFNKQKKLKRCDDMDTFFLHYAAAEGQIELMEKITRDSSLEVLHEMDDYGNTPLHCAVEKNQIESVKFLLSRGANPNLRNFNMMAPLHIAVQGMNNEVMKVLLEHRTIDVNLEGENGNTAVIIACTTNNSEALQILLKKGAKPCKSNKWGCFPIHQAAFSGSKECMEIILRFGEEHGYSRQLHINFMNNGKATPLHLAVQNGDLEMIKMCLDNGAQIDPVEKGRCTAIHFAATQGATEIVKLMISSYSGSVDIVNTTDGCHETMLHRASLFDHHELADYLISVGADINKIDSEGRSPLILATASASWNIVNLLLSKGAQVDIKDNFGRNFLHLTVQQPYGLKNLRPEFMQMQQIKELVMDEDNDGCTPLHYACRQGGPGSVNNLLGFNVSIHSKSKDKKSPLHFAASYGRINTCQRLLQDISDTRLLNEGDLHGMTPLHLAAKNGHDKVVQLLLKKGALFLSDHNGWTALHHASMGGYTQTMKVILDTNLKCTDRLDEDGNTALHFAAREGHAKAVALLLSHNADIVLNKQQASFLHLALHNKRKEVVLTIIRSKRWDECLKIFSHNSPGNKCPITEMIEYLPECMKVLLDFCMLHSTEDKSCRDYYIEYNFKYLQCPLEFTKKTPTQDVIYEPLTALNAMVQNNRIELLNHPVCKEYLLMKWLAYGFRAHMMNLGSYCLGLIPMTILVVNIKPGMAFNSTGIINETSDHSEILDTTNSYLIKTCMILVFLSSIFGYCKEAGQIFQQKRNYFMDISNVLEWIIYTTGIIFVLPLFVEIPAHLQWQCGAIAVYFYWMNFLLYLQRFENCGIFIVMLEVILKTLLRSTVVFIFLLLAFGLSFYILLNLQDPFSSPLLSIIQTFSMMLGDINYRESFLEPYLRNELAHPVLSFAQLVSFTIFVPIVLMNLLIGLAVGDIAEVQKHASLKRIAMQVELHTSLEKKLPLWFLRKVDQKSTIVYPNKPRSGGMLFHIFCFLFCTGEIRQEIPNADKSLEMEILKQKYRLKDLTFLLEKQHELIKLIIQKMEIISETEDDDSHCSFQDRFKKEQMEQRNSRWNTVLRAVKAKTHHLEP

Row | SMILES | IC50 [µM]
1 | O=C(c1cc(-c2ccncc2)n(-c2cccc(C(F)(F)F)c2)n1)N1CCC2(CC1)OCCO2 [Compound 148] | > 25
2 | O=C(c1cc(-c2cccnc2)n(-c2ccc(C(F)(F)F)c(F)c2)n1)N1CCN2C(=O)OC3(CC3)[C@@H]2C1 [Compound 192] | 0.001 to 5

Same assay, conditions: HEK293 cells expressing human TRPA1; IC50 class after addition of reference TRPA1 agonist (FFA, AITC or 4-HNE); read-out: human TRPA1-HEK Activity

Row | SMILES | IC50 [µM]
3 | O=C(c1cc(-c2cccnc2)n(-c2ccc(C(F)(F)F)c(F)c2)n1)N1CCC2(CC1)C(=O)Nc1ccccc12 [Compound 259] | 5 to 25
4 | O=C(c1cc(-c2cccnc2)n(-c2cc(F)c(F)c(F)c2)n1)N1CCC(n2c(=O)[nH]c3ncccc32)CC1 [Compound 256] | > 25
5 | Cn1c(=O)n(C2CCN(C(=O)c3cc(-c4ccncc4)n(-c4ccccc4)n3)CC2)c2ccccc21 [Compound 172] | > 25
6 | O=C(c1cc(-c2ccncc2)n(-c2ccc(C(F)(F)F)c(F)c2)n1)N1CCC2(CC1)OCc1ccccc12 [Compound 101] | > 25
7 | CC1CC2(CCN1C(=O)c1cc(-c3cccnc3)n(-c3ccc(F)c(C(F)(F)F)c3)n1)OC(=O)Nc1ccc(C(F)(F)F)cc12 (stereo not shown) [Compound 292] | 5 to 25
8 | CN1C(=O)COc2cc(NC(=O)c3cc(-c4ccncc4)n(-c4cnccn4)n3)ccc21 [Compound 131] | > 25
9 | O=C(c1cc(-c2cccnc2)n(-c2ccc(C(F)(F)F)c(F)c2)n1)N1CCC2(CC1)C(=O)NCN2c1cc(F)c(F)c(F)c1 [Compound 186] | 0.001 to 5
10 | O=C(c1cc(-c2ccncc2)n(-c2ccc(F)c(F)c2)n1)N1CCC2(CC1)C(=O)NCN2c1ccc(Cl)cc1 [Compound 78] | > 25
11 | Cn1c(=O)c(=O)n(C)c2cc(NC(=O)c3cc(-c4ccncc4)n(-c4ccc(F)c(F)c4)n3)ccc21 [Compound 91] | > 25
12 | O=C1Nc2ccc(F)cc2C2(CCN(C(=O)c3cc(-c4cccnc4)n(-c4ccc(F)c(C(F)(F)F)c4)n3)CC2)O1 [Compound 282] | 0.001 to 5
13 | N#Cc1cc(-n2nc(C(=O)N3CCC(n4c(=O)[nH]c5ccc(F)c(F)c54)CC3)cc2-c2cccnc2)ccc1F [Compound 248] | 0.001 to 5
14 | O=C(c1cc(-c2ccncc2)n(-c2ccc3c(c2)OCO3)n1)N1CCC(n2c(=O)[nH]c3ccccc32)CC1 [Compound 156] | > 25
15 | O=C(c1cc(-c2cccnc2)n(-c2ccc(C(F)(F)F)cc2Cl)n1)N1CCC2(CC1)C(=O)NCN2c1ccc(F)c(F)c1 [Compound 218] | 0.001 to 5
16 | O=C(c1cc(-c2ccncc2)n(-c2ccc(F)c(F)c2)n1)N1CCC2(CC1)C(=O)NCN2c1ccccc1 [Compound 149] | 5 to 25
17 | O=C(c1cc(-c2ccncc2)n(-c2ccccc2)n1)N1CCC2(CCCC2)CC1 [Compound 4] | > 25
18 | Cc1cc(OC(F)(F)F)ccc1-n1nc(C(=O)N2CCC3(CC2)C(=O)NCN3c2ccc(F)c(F)c2)cc1-c1cccnc1 [Compound 225] | 0.001 to 5
19 | Cn1c(=O)n(C2CCN(C(=O)c3cc(-c4ccncc4)n(-c4ccc(C(F)(F)F)c(F)c4)n3)CC2)c2ccccc21 [Compound 105] | > 25
20 | O=C(c1cc(-c2ccncc2)n(-c2ccc(F)c(F)c2)n1)N1CC(=O)N2CCc3ccccc3C2C1 (stereo not shown) [Compound 82] | > 25
21 | O=C1Nc2ncccc2C2(CCN(C(=O)c3cc(-c4cccnc4)n(-c4ccc(F)c(C(F)(F)F)c4)n3)CC2)O1 [Compound 281] | 0.001 to 5
22 | O=C(c1cc(-c2ccncc2)n(-c2ccc(C(F)(F)F)cc2)n1)N1CCC(N2C(=O)OC[C@H]2c2ccccc2)CC1 [Compound 62] | > 25
23 | O=C(c1cc(-c2ccncc2)n(-c2ccc(F)c(F)c2)n1)N1CCC2(CC1)OCc1ccccc12 [Compound 79] | > 25

Row | SMILES | IC50 [µM]
24 | O=C(Nc1ccc2c(c1)COC2=O)c1cc(-c2ccncc2)n(-c2ccc(C(F)(F)F)cc2)n1 [Compound 70] | 5 to 25
25 | O=C(c1cc(-c2cccnc2)n(-c2ccc(I)c(C(F)(F)F)c2)n1)N1CCC(n2c(=O)[nH]c3ccc(F)c(F)c32)CC1 [Compound 327] | 0.001 to 5
26 | O=C(c1cc(-c2ccncc2)n(-c2cccc(C(F)(F)F)c2)n1)N1CCC2(CC1)C(=O)NCN2c1ccccc1 [Compound 146] | 5 to 25
27 | O=C(c1cc(-c2cccnc2)n(-c2ccc(C(F)(F)F)c(C(F)(F)F)c2)n1)N1CCC(n2c(=O)[nH]c3ccc(F)c(F)c32)CC1 [Compound 285] | 0.001 to 5
28 | Cn1c(=O)n(C2CCN(C(=O)c3cc(-c4ccncc4)n(-c4ccc(C(F)(F)F)nc4)n3)CC2)c2ccccc21 [Compound 126] | > 25
29 | O=C(c1cc(-c2ccncc2)n(-c2ccc(C(F)(F)F)c(F)c2)n1)N1CCC(N2C(=O)OC[C@H]2c2ccccc2)CC1 [Compound 106] | > 25
30 | O=C(c1cc(-c2ccncc2)n(-c2ccccc2)n1)N1CCC2(CCCO2)CC1 [Compound 12] | > 25
31 | O=C(c1cc(-c2ccncc2)n(-c2cnccn2)n1)N1CCC2(CC1)NCN(c1ccccc1)C2=O [Compound 137] | > 25
32 | CN1C(=O)COc2cc(NC(=O)c3cc(-c4ccncc4)n(-c4ccc(C(F)(F)F)c(F)c4)n3)ccc21 [Compound 110] | > 25
33 | N#Cc1cc(C(F)(F)F)ccc1-n1nc(C(=O)N2CCC3(CC2)C(=O)NCN3c2ccc(F)cc2)cc1-c1cccnc1 [Compound 323] | 0.001 to 5
34 | O=C1Nc2ccc(C(F)(F)F)cc2C2(CCN(C(=O)c3cc(-c4cccnc4)n(-c4ccc(F)c(C(F)(F)F)c4)n3)CC2)O1 [Compound 274] | 0.001 to 5
35 | O=C(c1cc(-c2ccncc2)n(-c2ccc(C(F)(F)F)nc2)n1)N1CC(=O)N2CCc3ccccc3C2C1 (stereo not shown) [Compound 125] | > 25
36 | O=C(c1cc(-c2ccncc2)n(-c2ccc(C(F)(F)F)nc2)n1)N1CCC2(CC1)SCCS2 [Compound 128] | > 25
37 | CC1CC(n2c(=O)[nH]c3ccc(F)c(F)c32)CCN1C(=O)c1cc(-c2cccnc2)n(-c2ccc(F)c(C(F)(F)F)c2)n1 (stereo not shown) [Compound 293] | 0.001 to 5
38 | O=C1NC(=O)C2(CCN(C(=O)c3cc(-c4ccncc4)n(-c4ccccc4)n3)CC2)N1 [Compound 30] | > 25
39 | CN1C(=O)COc2cc(NC(=O)c3cc(-c4ccncc4)n(-c4ccc(F)c(F)c4)n3)ccc21 [Compound 89] | > 25
40 | O=C1OC2(CCN(C(=O)c3cc(-c4ccncc4)n(-c4ccc(C(F)(F)F)c(F)c4)n3)CC2)c2ccccc21 [Compound 102] | > 25
41 | Cc1cc(N2CNC(=O)C23CCN(C(=O)c2cc(-c4cccnc4)n(-c4ccc(C(F)(F)F)c(F)c4)n2)CC3)cc(C)c1F [Compound 195] | 0.001 to 5
42 | O=C(c1cc(-c2cccnc2)n(-c2ccc(OC(F)(F)F)cc2)n1)N1CCC(n2c(=O)[nH]c3ccc(F)c(F)c32)CC1 [Compound 220] | 0.001 to 5
43 | O=C(c1cc(-c2cccnc2)n(-c2ccc(C(F)(F)F)c(F)c2)n1)N1CCC2(CC1)C(=O)NCN2c1ccc(Br)cc1 [Compound 184] | > 25
44 | O=C(c1cc(-c2ccncc2)n(-c2ccc(C(F)(F)F)c(F)c2)n1)N1CC(=O)N2CCc3ccccc3C2C1 (stereo not shown) [Compound 104] | > 25

Row | SMILES | IC50 [µM]
45 | O=C(c1cc(-c2ccncc2)n(-c2ccccc2)n1)N1CCN(c2ncccc2C(F)(F)F)CC1 [Compound 34] | > 25
46 | O=C(c1cc(-c2cccnc2)n(-c2ccc(Cl)c(C(F)(F)F)c2)n1)N1CCC2(CC1)C(=O)NCN2c1ccc(F)cc1 [Compound 296] | 0.001 to 5
47 | O=C(c1cc(-c2cccnc2Cl)n(-c2ccc(C(F)(F)F)c(F)c2)n1)N1CCC(n2c(=O)[nH]c3ccc(F)c(F)c32)CC1 [Compound 247] | > 25
48 | N#Cc1cc2[nH]c(=O)n(C3CCN(C(=O)c4cc(-c5cccnc5)n(-c5ccc(C(F)(F)F)c(F)c5)n4)CC3)c2cc1F [Compound 234] | 0.001 to 5
49 | O=C(c1cc(-c2ccncc2)n(-c2cnccn2)n1)N1CCC(n2c(=O)[nH]c3ccccc32)CC1 [Compound 168] | 5 to 25
50 | Cc1cc(N2CNC(=O)C23CCN(C(=O)c2cc(-c4cccnc4)n(-c4cc(F)c(F)c(F)c4)n2)CC3)ccc1F [Compound 255] | 0.001 to 5
51 | O=C(c1cc(-c2ccncc2)n(-c2ccc(C(F)(F)F)cc2)n1)N1CCC2(CC1)SCCS2 [Compound 63] | > 25
52 | O=C(c1cc(-c2cccnc2)n(-c2ccc(C(F)(F)F)c(F)c2)n1)N1CCN2C(=O)OC[C@@H]2C1 [Compound 191] | 0.001 to 5
53 | O=C(c1cc(-c2ccncc2)n(-c2ccc(C(F)(F)F)nc2)n1)N1CCC2(CC1)C(=O)NCN2c1ccc(Cl)cc1 [Compound 121] | > 25
54 | O=C(c1cc(-c2ccncc2)n(-c2ccc(C(F)(F)F)nc2)n1)N1CCC(n2c(=O)[nH]c3ccccc32)CC1 [Compound 165] | > 25
55 | N#Cc1ccc2[nH]c(=O)n(C3CCN(C(=O)c4cc(-c5cccnc5)n(-c5ccc(C(F)(F)F)c(F)c5)n4)CC3)c2c1 [Compound 190] | 0.001 to 5
56 | O=C(c1nn(-c2ccc(F)c(C(F)(F)F)c2)c2c1CCc1ncccc1-2)N1CCC(n2c(=O)[nH]c3ccc(F)c(F)c32)CC1 [Compound 314] | 0.001 to 5
57 | O=C(c1cc(-c2ccncc2)n(-c2cc(F)c(F)c(F)c2)n1)N1CCC2(CC1)C(=O)NCN2c1ccccc1 [Compound 140] | 5 to 25
58 | Cc1c(C(=O)N2CCC3(CC2)C(=O)NCN3c2ccc(F)cc2)nn(-c2cc(F)c(F)c(F)c2)c1-c1cccnc1 [Compound 266] | 0.001 to 5
59 | O=C(c1cc(-c2ccncc2)n(-c2ccc(F)c(F)c2)n1)N1CCN2C(=O)OC[C@@H]2C1 [Compound 94] | > 25
60 | N#Cc1c(F)ccc2[nH]c(=O)n(C3CCN(C(=O)c4cc(-c5cccnc5)n(-c5ccc(C(F)(F)F)c(F)c5)n4)CC3)c12 [Compound 244] | 5 to 25
61 | O=C(c1cc(-c2ccncc2)n(-c2ccc(F)c(F)c2)n1)N1CCC(N2C(=O)OC[C@H]2c2ccccc2)CC1 [Compound 84] | > 25
62 | O=C1CSC2(CCN(C(=O)c3cc(-c4ccncc4)n(-c4ccc(C(F)(F)F)cc4)n3)CC2)N1 [Compound 68] | > 25
63 | Cn1c(=O)n(C2CCN(C(=O)c3cc(-c4ccncc4)n(-c4ccc(C(F)(F)F)cc4)n3)CC2)c2ccccc21 [Compound 61] | > 25
64 | O=C(c1cc(-c2ccncc2)n(-c2ccc(C(F)(F)F)cc2)n1)N1CCC(n2c(=O)[nH]c3cc(C(F)(F)F)ccc32)CC1 [Compound 178] | 5 to 25
